Reference: paper PMC7382147, “An effective UFLC–MS/MS method used to study pharmacokinetics of major constituents of Fukeqianjin formula in rat plasma” (Chinese Medicine, 2020)
Read-outs that look alike come from different tables or passages of the source.

Tests used:
[1] = Pharmacokinetic study in rat plasma after oral administration of FKQJF extract (UFLC–MS/MS); type: in vivo, Sprague-Dawley (SD) rats; conditions: for AUC(0-inf) / AUC(0-t) / Cmax / half-life / MRT last / MRT inf / Tmax: oral FKQJF extract, single dose 3.2 g/kg, mean ± SD; for MRT last: read-out: MRT0→t; for MRT inf: read-out: MRT0→∞; for shape of the plasma concentration–time curve / time of first peak of the concentration–time curve / time of second peak of the concentration–time curve: oral FKQJF extract 3.2 g/kg; for time of first peak of the concentration–time curve / time of second peak of the concentration–time curve: post dose
Description: (§1) Aliquots of 100 μL plasma samples were mixed with 10 μL I.S. samples (1 μg/mL, in MeOH), then added with 500 μL ACN, respectively, and vortexed for 5 min, centrifugated at 10,000 rpm for 10 min, the supernatants were transferred into clean vials and dried in a vacuum centrifugal concentrator at 1200 rpm, 37 °C. After that, 100 μL ACN was added and ultrasonic (frequency 40 kHz, power 250 W) extracted for 5 min to dissolve the dry residue, vortexed for 1 min and centrifugated at 10,000 rpm for 5 min, 1 μL of each final supernatant was injected into UFLC–MS/MS for analysis.
An 8050 UFLC–MS/MS system equipped with LC-30A binary pump, a SIL-30AC autosampler, a SPD-M30A PDA detector, a CTO-20AC column oven, and a 8050 triple quadrupole mass spectrometer with an electrospray ionization source (ESI) was applied to detect and quantify FKQJF compounds in plasma samples. Data were acquired and processed with the software LabSolution (Ver. 5.6).
A Kinetex XB-C18 HPLC column (100 × 2.1 mm, 2.6 μm) linked with an equivalent guard column was used for chromatographic separation. The aqueous phase contained 0.2% formic acid was used as mobile phase A, and organic phase ACN as mobile phase B. The gradient elution method using in this program was: 3–5 min, 28–31% B; 5–7 min, 31–34% B; 7–9 min, 34–65% B; 9–10 min, 65–95% B; 10–11.5 min, 95% B. The flow rate of mobile phase, column temperature and autosampler temperature was 0.4 mL/min, 30 °C and 4 °C, respectively. The injection volume of each sample was set as 1 μL. The main MS spectrum parameters were set as follows: the flow rate of drying gas (N2) was 10.0 L/min; the atomized gas was 3.0 L/min and the heating gas flow rate was 10.0 L/min. The main temperatures of interface, desolvation and heat block was 300 °C, 250 °C and 400 °C, respectively. And, the interface and detector voltage were 3 kV and 1.8 kV.
Rats were divided into a blank group and a FKQJF administration group (6 rats for each), and fasted for 24 h. Each rat of the administration group was given FKQJF extract suspension at a single dose of 3.2 g FKQJF/kg body weight through oral administration in parallel. Blood samples (0.25 mL) were gathered from the orbital venous plexus of each rat, with FKQJF group gathered at 14 serial timepoints (6 rats for each) as 0.083 h, 0.16 h, 0.33 h, 0.5 h, 0.75 h, 1.0 h, 1.5 h, 2 h, 3 h, 4 h, 6 h, 8 h, 12 h and 24 h after drug administration. The blood samples were centrifugated at 6000g for 10 min to isolate plasma and stored at − 20 °C for further analysis.
Data were analyzed using the Drug and Statistics (DAS) Software version 2.0 (DAS 2.0, Mathematical Pharmacology Professional Committee of China, Shanghai, China). The non-compartmental mode was applied to obtain the following PK parameters: area under the plasma concentration–time curve from time zero to the time of last quantifiable concentration (AUC0→t) and area under the plasma concentration–time curve to time infinity (AUC0→∞), the elimination half-life (t1/2), mean retention time to last sampling time (MRT0→t) and mean retention time to infinity (MRT0→∞). The maximum plasma concentration (Cmax) and the time to maximum concentration (Tmax) were observed directly from the concentration–time (C–T) curves and measured data. All data are presented as mean ± SD.

[2] = Ordinary stability of QC samples (room temperature for 8 h); type: physicochemical, rat; conditions: plasma QC, room temperature 8 h
Description: as §1
(§2) Six replicates of low, medium and high concentrations of quality control (QC) samples were used to verify the stabilities under different conditions including: place at room temperature for 8 h, freeze (− 20 °C) and thaw for three times, and store at − 20 °C for 20 days.

[3] = Freeze–thaw stability of QC samples (−20 °C, three times); type: physicochemical, rat; conditions: plasma QC, freeze (−20 °C) and thaw three times
Description: as §1, §2

[4] = Long-term stability of QC samples (−20 °C for 20 days); type: physicochemical, rat; conditions: plasma QC
Description: as §1, §2

SMILES | AUC(0-inf) ([1]; Sprague-Dawley) | AUC(0-t) ([1]; Sprague-Dawley) | Cmax ([1]; Sprague-Dawley) | half-life ([1]; Sprague-Dawley) | MRT last ([1]; Sprague-Dawley) | MRT inf ([1]; Sprague-Dawley) | Tmax ([1]; Sprague-Dawley, read-out: Tmax) | shape of the plasma concentration–time curve [1] | Ordinary stability Mean ([2]; spiked 50 ng/mL) | Ordinary stability Mean ([2]; spiked 250 ng/mL) | Ordinary stability Mean ([2]; spiked 500 ng/mL) | Freeze–thaw stability Mean ([3]; spiked 50 ng/mL) | Freeze–thaw stability Mean ([3]; spiked 250 ng/mL) | Freeze–thaw stability Mean ([3]; spiked 500 ng/mL) | Long-term stability Mean ([4]; spiked 50 ng/mL) | Long-term stability Mean ([4]; spiked 250 ng/mL) | Long-term stability Mean ([4]; spiked 500 ng/mL) | Ordinary stability Mean ([2]; spiked 60 ng/mL) | Ordinary stability Mean ([2]; spiked 300 ng/mL) | Ordinary stability Mean ([2]; spiked 600 ng/mL) | further results
COc1ccc(-c2coc3cc(O[C@@H]4O[C@H](CO)[C@@H](O)[C@H](O)[C@H]4O)ccc3c2=O)cc1 [Analyte 10, ononin] | 375 ± 153 ng·h/mL | 370 ± 156 ng·h/mL | 192 ± 32 ng/mL | 1.64 ± 0.52 h | 2.54 ± 1.12 h | 3.13 ± 1.66 h | 1.33 ± 0.58 h | double-peaks | 95.59% | 82.57% | 103.90% | 118.81% | 102.95% | 81.68% | 95.03% | 81.88% | 107.95% |  |  |  | 
COc1cc2c(cc1OC)-c1cc3ccc(OC)c(OC)c3c[n+]1CC2 [Analyte 11, palmatine] | 1640 ± 155 ng·h/mL | 691 ± 93.3 ng·h/mL | 134 ± 31.8 ng/mL | 9.16 ± 2.09 h | 11 ± 0.99 h | 14.2 ± 8.89 h | 1.67 ± 0.29 h |  |  |  |  |  |  |  |  |  |  |  |  |  | Ordinary stability Mean ([2]; spiked 5 ng/mL): 92.36%; Ordinary stability Mean ([2]; spiked 100 ng/mL): 81.64%; Freeze–thaw stability Mean ([3]; spiked 5 ng/mL): 94.51%; Freeze–thaw stability Mean ([3]; spiked 100 ng/mL): 98.74%; Long-term stability Mean ([4]; spiked 5 ng/mL): 87.02%; Long-term stability Mean ([4]; spiked 100 ng/mL): 101.38%; Long-term stability Mean ([4]; spiked 200 ng/mL): 89.65%
C=C1CC[C@@H]2[C@](C)(CO)[C@H](O)CC[C@@]2(C)[C@@H]1C/C=C1/C(=O)OC[C@H]1O [Analyte 12, andrographolide] | 480 ± 71.9 ng·h/mL | 442 ± 59.5 ng·h/mL | 186 ± 19 ng/mL | 1.79 ± 0.2 h | 2.45 ± 0.19 h | 3.1 ± 0.33 h | 1 ± 0.43 h | double-peaks |  |  |  |  |  |  |  |  |  | 115.56% | 107.50% | 85.93% | time of first peak of the concentration–time curve [1]: 0 to 1 h; time of second peak of the concentration–time curve [1]: 1.5 to 3 h; Freeze–thaw stability Mean ([3]; spiked 60 ng/mL): 84.52%; Freeze–thaw stability Mean ([3]; spiked 300 ng/mL): 86.83%; Freeze–thaw stability Mean ([3]; spiked 600 ng/mL): 93.19%; Long-term stability Mean ([4]; spiked 60 ng/mL): 115.89%; Long-term stability Mean ([4]; spiked 300 ng/mL): 94.37%; Long-term stability Mean ([4]; spiked 600 ng/mL): 96.64%
COc1ccc2cc3[n+](cc2c1OC)CCc1cc2c(cc1-3)OCO2 [Analyte 13, berberine] | 5630 ± 2430 ng·h/mL | 3800 ± 171 ng·h/mL | 619 ± 84.6 ng/mL | 38.8 ± 53.2 h | 8.04 ± 0.88 h | 39 ± 46.5 h | 8 h | double-peaks |  |  |  |  |  |  |  |  |  |  |  |  | Ordinary stability Mean ([2]; spiked 5 ng/mL): 84.57%; Ordinary stability Mean ([2]; spiked 100 ng/mL): 103.56%; Ordinary stability Mean ([2]; spiked 200 ng/mL): 113.97%; Freeze–thaw stability Mean ([3]; spiked 5 ng/mL): 97.72%; Freeze–thaw stability Mean ([3]; spiked 100 ng/mL): 110.44%; Freeze–thaw stability Mean ([3]; spiked 200 ng/mL): 104.87%; Long-term stability Mean ([4]; spiked 5 ng/mL): 102.75%; Long-term stability Mean ([4]; spiked 100 ng/mL): 81.78%; Long-term stability Mean ([4]; spiked 200 ng/mL): 114.48%
O=C1C[C@@H](c2ccc(O)cc2)Oc2cc(O)cc(O)c21 [Analyte 14, naringenin] | 206 ± 58.7 ng·h/mL | 144 ± 16.5 ng·h/mL | 67.7 ± 27.6 ng/mL | 12.1 ± 9.32 h | 6.67 ± 1.42 h | 17 ± 8.17 h |  |  | 80.39% | 92.68% | 101.11% | 88.34% | 116.86% | 84.71% | 91.66% | 103.10% | 99.51% |  |  |  | Tmax [1]: 2.00 ± 0.00 h
C=C1CC[C@@H]2[C@](C)(CO)[C@H](O)CC[C@@]2(C)[C@@H]1/C=C/C1=CCOC1=O [Analyte 15, 14-deoxy-11,12-didehydro-andrographolide] | 81.1 ± 19.4 ng·h/mL | 74.3 ± 17.5 ng·h/mL | 47.7 ± 5.92 ng/mL | 1.2 ± 0.74 h | 2.21 ± 0.48 h | 3.05 ± 1.01 h | 1.42 ± 0.63 h | double-peaks |  |  |  |  |  |  |  |  |  | 89.92% | 119.43% | 82.90% | time of first peak of the concentration–time curve [1]: 0 to 1 h; time of second peak of the concentration–time curve [1]: 1.5 to 3 h; Freeze–thaw stability Mean ([3]; spiked 60 ng/mL): 114.11%; Freeze–thaw stability Mean ([3]; spiked 300 ng/mL): 105.94%; Freeze–thaw stability Mean ([3]; spiked 600 ng/mL): 118.41%; Long-term stability Mean ([4]; spiked 60 ng/mL): 100.55%; Long-term stability Mean ([4]; spiked 300 ng/mL): 98.43%; Long-term stability Mean ([4]; spiked 600 ng/mL): 88.35%
COc1ccccc1-c1cc(=O)c2c(O)cc(OC)c(OC)c2o1 [Analyte 16, panicolin] | 251 ± 97.6 ng·h/mL | 177 ± 17.1 ng·h/mL | 31.4 ± 6.94 ng/mL | 12.6 ± 12.7 h | 8.68 ± 1.17 h | 20.1 ± 5.01 h | 2 h | double-peaks | 83.35% | 92.98% | 88.55% | 105.76% | 108.03% | 95.34% | 105.80% | 89.82% | 95.48% |  |  |  | 
C=C1CC[C@@H]2[C@](C)(CO)CCC[C@@]2(C)[C@@H]1CCC1=CCOC1=O [Analyte 17, andrograpanin] | 179 ± 14.3 ng·h/mL | 161 ± 12.7 ng·h/mL | 19.2 ± 2.48 ng/mL | 5.98 ± 0.4 h | 7.3 ± 0.38 h | 9.82 ± 0.45 h | 3.33 ± 2.31 h | double-peaks |  |  |  |  |  |  |  |  |  | 81.80% | 117.99% | 89.06% | Freeze–thaw stability Mean ([3]; spiked 60 ng/mL): 82.73%; Freeze–thaw stability Mean ([3]; spiked 300 ng/mL): 86.68%; Freeze–thaw stability Mean ([3]; spiked 600 ng/mL): 115.83%; Long-term stability Mean ([4]; spiked 60 ng/mL): 87.43%; Long-term stability Mean ([4]; spiked 300 ng/mL): 90.66%; Long-term stability Mean ([4]; spiked 600 ng/mL): 117.51%
